System: CD30-overexpressing cell line Karpas 299
Assay: Cell based antiproliferation (resazurin) assay, Karpas 299
Settings: Karpas 299, 96 hours of treatment, Brentuximab-NA3 DAR=3.15

Brentuximab: CD30-addressing antibody
growth inhibition (cell viability): does not show growth inhibition

Source: patent US12453779B2, “Chemoselective thiol-conjugation with alkene or alkyne-phosphonothiolates and -phosphonates” (FORSCHUNGSVERBUND BERLIN E.V., priority 2018, dated 2025)
